Literature values as cited in US20230302026A1, “IMMUNOMODULATION FORMULATIONS AND RELATED METHODS” (priority 2020, published 2023).
Converted amounts (≈) assume the structure as drawn. Read-outs that look alike come from different tables or passages of the source.

Experiments:
CB2 [1] = target: T1, CB2 (Homo sapiens, UniProt P34972)
inflammation = details: animal model
CB1 [2] = target: T2, CB1 (Homo sapiens, UniProt P21554); details: read-out: Ki, affinity for the human recombinant CB1 receptor
Target sequence in this assay (P21554 whole entry): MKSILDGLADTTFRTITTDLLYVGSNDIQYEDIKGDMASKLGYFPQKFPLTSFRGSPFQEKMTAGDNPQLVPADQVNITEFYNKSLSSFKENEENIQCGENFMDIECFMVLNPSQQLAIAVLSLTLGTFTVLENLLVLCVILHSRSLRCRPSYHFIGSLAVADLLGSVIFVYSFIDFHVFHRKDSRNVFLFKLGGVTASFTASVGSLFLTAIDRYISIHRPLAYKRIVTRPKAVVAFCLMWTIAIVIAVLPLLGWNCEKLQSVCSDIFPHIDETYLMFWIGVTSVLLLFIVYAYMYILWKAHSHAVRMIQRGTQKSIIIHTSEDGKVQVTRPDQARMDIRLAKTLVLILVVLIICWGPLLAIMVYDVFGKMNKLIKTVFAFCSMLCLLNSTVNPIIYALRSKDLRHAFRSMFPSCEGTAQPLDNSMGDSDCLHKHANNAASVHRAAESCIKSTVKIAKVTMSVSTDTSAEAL

GPR55 = GPR55 (Homo sapiens, UniProt Q9Y2T6)
FAAH [3] = target: T3, FAAH (Homo sapiens, UniProt O00519)
T3 sequence (O00519 1-579): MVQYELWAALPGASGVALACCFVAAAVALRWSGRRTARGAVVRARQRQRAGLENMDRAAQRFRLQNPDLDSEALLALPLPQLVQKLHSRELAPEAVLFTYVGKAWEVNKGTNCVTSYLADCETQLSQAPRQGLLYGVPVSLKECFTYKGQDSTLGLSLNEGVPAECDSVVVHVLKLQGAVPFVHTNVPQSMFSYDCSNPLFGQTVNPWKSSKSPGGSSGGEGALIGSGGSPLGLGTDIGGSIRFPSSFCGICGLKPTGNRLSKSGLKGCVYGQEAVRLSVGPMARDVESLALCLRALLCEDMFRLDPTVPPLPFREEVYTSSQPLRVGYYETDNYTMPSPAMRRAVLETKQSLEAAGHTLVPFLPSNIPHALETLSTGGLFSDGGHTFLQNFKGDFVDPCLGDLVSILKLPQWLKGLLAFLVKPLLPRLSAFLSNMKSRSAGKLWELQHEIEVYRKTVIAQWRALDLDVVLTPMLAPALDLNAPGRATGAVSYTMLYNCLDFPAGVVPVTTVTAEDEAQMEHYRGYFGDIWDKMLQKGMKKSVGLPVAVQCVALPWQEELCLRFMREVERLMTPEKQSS

CB2 [4] = target: T1, CB2; remark: listed apart in the source
CB1 [5] = target: T2, CB1
Target sequence in this assay (P21554 whole entry, species assumed): as the sequence (P21554 whole entry) above

TRPV1 = TRPV1 (Homo sapiens, UniProt Q8NER1)
Adenosine A2A = Adenosine A2A (Homo sapiens, UniProt P29274)
5-HT1a = target: T4, 5-HT1a (Homo sapiens, UniProt P08908)
T4 sequence (P08908 1-422): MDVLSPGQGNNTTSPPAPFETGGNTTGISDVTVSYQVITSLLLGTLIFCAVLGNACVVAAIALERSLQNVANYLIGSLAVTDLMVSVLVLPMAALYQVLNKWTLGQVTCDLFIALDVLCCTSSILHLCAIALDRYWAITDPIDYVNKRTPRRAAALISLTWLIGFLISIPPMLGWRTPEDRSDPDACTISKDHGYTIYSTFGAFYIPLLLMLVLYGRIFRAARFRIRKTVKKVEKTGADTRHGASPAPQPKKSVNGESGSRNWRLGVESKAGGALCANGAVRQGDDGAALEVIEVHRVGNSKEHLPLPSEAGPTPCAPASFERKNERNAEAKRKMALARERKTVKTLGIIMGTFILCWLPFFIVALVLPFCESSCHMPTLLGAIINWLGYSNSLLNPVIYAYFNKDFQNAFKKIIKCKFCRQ

monoamine oxidase = details: in vitro; read-out: IC50 as monoamine oxidase inhibitor (MAOI)
MAGL = target: T5, MAGL (Homo sapiens, UniProt Q99685); details: read-out: IC50 as MAGL inhibitor
T5 sequence (Q99685 1-303): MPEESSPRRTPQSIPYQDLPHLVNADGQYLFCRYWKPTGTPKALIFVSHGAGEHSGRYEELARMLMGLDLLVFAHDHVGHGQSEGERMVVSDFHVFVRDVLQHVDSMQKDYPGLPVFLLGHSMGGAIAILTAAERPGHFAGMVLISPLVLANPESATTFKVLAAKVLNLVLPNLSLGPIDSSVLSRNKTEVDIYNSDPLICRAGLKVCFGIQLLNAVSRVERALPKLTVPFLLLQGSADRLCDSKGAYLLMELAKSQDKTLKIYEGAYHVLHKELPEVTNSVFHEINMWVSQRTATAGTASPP

FAAH [6] = details: read-out: IC50 as FAAH inhibitor
[7] = at 18° C.

T1 sequence (P34972 whole entry): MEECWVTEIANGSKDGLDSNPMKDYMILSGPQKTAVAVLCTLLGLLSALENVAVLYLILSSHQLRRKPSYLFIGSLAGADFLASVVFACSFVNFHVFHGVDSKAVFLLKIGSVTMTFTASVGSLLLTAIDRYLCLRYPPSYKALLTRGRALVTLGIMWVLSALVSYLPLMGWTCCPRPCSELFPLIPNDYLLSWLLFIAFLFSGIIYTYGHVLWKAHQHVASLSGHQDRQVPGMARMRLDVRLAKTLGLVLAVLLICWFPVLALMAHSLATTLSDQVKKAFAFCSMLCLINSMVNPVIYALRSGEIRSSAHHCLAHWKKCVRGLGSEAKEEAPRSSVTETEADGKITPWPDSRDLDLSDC
Sequence of GPR55 (Q9Y2T6 whole entry, species assumed): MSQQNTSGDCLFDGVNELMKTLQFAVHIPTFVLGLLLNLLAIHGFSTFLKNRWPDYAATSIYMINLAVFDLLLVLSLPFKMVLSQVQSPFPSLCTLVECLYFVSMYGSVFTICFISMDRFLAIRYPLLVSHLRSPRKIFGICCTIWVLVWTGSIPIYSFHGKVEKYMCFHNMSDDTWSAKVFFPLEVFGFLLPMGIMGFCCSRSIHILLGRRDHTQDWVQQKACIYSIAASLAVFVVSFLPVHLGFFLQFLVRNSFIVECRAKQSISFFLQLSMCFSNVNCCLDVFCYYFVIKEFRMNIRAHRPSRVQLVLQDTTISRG
Sequence of TRPV1 (Q8NER1 whole entry, species assumed): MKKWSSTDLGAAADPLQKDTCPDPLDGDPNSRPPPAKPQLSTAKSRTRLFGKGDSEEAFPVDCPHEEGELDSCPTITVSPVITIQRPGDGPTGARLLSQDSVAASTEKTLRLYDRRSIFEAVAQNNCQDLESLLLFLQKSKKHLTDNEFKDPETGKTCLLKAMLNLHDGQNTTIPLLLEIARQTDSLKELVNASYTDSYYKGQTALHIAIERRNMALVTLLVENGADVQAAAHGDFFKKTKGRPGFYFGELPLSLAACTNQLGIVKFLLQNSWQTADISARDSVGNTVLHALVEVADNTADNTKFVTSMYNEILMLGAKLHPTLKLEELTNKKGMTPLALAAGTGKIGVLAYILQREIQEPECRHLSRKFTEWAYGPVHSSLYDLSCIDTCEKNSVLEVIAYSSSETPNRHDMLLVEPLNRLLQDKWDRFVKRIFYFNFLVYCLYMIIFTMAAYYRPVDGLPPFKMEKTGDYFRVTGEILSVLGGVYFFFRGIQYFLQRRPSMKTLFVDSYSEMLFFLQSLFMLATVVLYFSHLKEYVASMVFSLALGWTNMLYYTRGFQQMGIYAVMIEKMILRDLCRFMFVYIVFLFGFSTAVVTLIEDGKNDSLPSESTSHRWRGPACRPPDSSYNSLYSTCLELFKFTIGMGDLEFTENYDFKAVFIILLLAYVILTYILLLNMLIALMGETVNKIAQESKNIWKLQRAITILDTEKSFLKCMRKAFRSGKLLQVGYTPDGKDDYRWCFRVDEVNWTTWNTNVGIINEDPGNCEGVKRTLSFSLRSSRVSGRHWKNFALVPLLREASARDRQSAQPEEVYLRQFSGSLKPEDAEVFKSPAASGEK
Sequence of Adenosine A2A (P29274 whole entry): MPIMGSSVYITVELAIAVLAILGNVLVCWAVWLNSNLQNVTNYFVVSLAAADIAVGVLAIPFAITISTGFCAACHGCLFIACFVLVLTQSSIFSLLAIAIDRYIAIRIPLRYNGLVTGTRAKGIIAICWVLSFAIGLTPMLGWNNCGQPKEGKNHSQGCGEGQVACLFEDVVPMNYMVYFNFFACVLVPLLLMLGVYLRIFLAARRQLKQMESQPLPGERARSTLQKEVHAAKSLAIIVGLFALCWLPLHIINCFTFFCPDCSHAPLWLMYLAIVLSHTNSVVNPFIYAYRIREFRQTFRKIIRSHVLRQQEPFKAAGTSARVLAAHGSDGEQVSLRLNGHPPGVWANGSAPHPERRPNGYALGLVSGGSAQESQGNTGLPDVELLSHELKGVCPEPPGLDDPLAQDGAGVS

In the case of c1ccc2c(Cc3c[nH]c4ccccc34)c[nH]c2c1 [3,3′-Diindolylmethane], the Ki (CB2 [1]) is given as about 1 µM.
For C=C1CC/C=C(\C)CC[C@@H]2[C@@H]1CC2(C)C [(E)-BCP, beta-carophyllene], the Ki (CB2 [1]) is listed as 0.155 ± 0.004 µM.
For C/C1=C\CC/C(C)=C/CC(C)(C)/C=C/C1 [Humulene], the anti-inflammatory activity (inflammation) is listed as “equal to dexamethasone”.
In the case of CCCCCc1cc(O)c2c(c1)OC(C)(C)[C@@H]1CCC(C)=C[C@@H]21 [THC, Δ^9-tetrahydrocannabinol], the “activity at CB2” value (CB2 [1]) is listed as “partial agonist”.
In the case of COc1ccc(/C=C/c2cc(OC)cc(=O)o2)cc1 [Yangonin, yangonin], the Ki (CB1 [2]) is given as 0.72 µM and the Ki (CB2 [1]) is given as over 10 µM.
For C=C(C)[C@@H]1CCC(C)=C[C@H]1c1c(O)cc(CCCCC)cc1O [cannabidiol], the “Activity at GPR55” value (GPR55) is given as “Antagonist”, the “Activity at FAAH” value (FAAH [3]) is given as “Inhibition” and the “activity at CB2” value (CB2 [4]) is given as “Agonist”. For the same compound, the “Activity at CB1” value (CB1 [5]) was “Agonist”, the “Activity at TRPV1” value (TRPV1) was “Agonist” and the “Activity at Adenosine A2A” value (Adenosine A2A) was “Agonist”. For the same compound, the “Activity at 5-HT1a” value (5-HT1a) was “Agonist”.
In the case of CC(C)CNC(=O)/C=C/C=C/CCCCCC/C=C/c1ccc2c(c1)OCO2 [guineesine], the IC50 (monoamine oxidase) is given as 139 µM.
For O=c1c(O)c(-c2ccc(O)cc2)oc2cc(O)cc(O)c12 [kaempherol], the IC50 (MAGL) is listed as under 0.1 µM and the IC50 (FAAH [6]) is listed as under 1 µM.
In the case of O=C(/C=C/C=C/c1ccc2c(c1)OCO2)N1CCCCC1 [piperine], the solubility in water [7] is given as 40 µg/mL (≈ 140 µM).
In the case of C=CC(C)(C)c1cc2cc3c(cc2oc1=O)OC(C(C)(C)OC(C)=O)C3 (stereo not drawn) [rutamarin], the Ki (CB2 [1]) is listed as under 10 µM.
